Experimental data as given in PMC12811997 (Chemmedchem, 2025).
Converted amounts (≈) assume the structure as drawn. Read-outs that look alike come from different tables or passages of the source.

Legend:
[1] = molecular target: T1, SARS‐CoV‐2 RdRp complex (nsp12, nsp7, nsp8) (Severe acute respiratory syndrome coronavirus 2, UniProt P0DTD1); design: method as in PMID 39140451; conditions: at 10 μM concentration of screened compound; ref [10]; cited from earlier work
[2] = molecular target: T1, SARS‐CoV‐2 RdRp complex (nsp12, nsp7, nsp8); test: biochemical; format: biochemical; conditions: AUC with compound / AUC of noninhibited reaction; for remaining activity at 10 µM: read-out: RA ± SD (residual activity of RdRp), at 10 μM concentration of screened compounds
[3] = tested on: SARS‐CoV‐2; test: microbe, parasite or virus in culture; format: cell-based
[4] = Chemical stability in aqueous solution; format: physicochemical
[5] = in vitro; conditions: human
Protocol: (§1) Cytotoxicity was evaluated by incubating the same two‐fold serial dilutions of each compound with Calu‐3 cells as above but without the virus. Following 3 days of incubation at 37 °C in 5% CO2, the cell viability was determined by the addition of XTT solution as above. The compound cytotoxic concentrations resulting in a 50% reduction of absorbance (CC50) were calculated from plots of the percentage of absorbance versus log10 of drug concentration as above.

[6] = Kinetic solubility; conditions: for solubility kinetic: kinetic from dmso stock
[7] = tested on: Calu‐3 cells; conditions: read-out: CC50 ± SE, concentration required to reduce cell viability by 50%
Protocol: as §1

[8] = Severe acute respiratory syndrome coronavirus 2, Calu‐3 cells infected with SARS‐CoV‐2, concentration required to reduce viral cytopathic effect by 50%, read-out: EC50

Compound	RA (residual activity of RdRp) [1]	remaining activity at 10 µM [2]	EC50 [3, 8]	CC50 at 3 days [5]	solubility kinetic [6]	also measured
O=C(Nc1cc(Cl)cc(Cl)c1)Nc1cccc(C(F)(F)F)c1 [Compound 1, 1‐(3,5‐dichlorophenyl)‐3‐(3‐(trifluoromethyl)phenyl)urea]	45%	–	–	–	–	–
FC(F)(F)c1ccc2nc(-c3nc4cc(Cl)c(Cl)cc4[nH]3)[nH]c2c1 [Compound 2]	43 ± 6%	–	–	–	–	–
O=C(Nc1cccc(C(F)(F)F)c1)Nc1nc2cc(Cl)c(Cl)cc2[nH]1 [Compound 3]	49 ± 6%	–	–	–	–	–
O=C(Nc1cc(Cl)cc(Cl)c1)Nc1nc2ccc(C(F)(F)F)cc2[nH]1 [Compound 4]	29 ± 2%	–	–	–	–	–
O=C(Nc1cc(Cl)cc(Cl)c1)Nc1ccc(CN2CCOC(=O)C2)c(C(F)(F)F)c1 [Compound 64, 1‐(3,5‐Dichlorophenyl)‐3‐(4‐((2‐Oxomorpholino)Methyl)‐3‐(Trifluoromethyl)Phenyl)Urea]	–	39 ± 12%	> 38 µM	38 ± 8.2 µM	21 ± 2 µM (≈ 9.71 µg/mL)	chemical stability [4]: chemically unstable and underwent rapid hydrolysis in aqueous solution; increase in kinetic solubility compared with compound 39 ([6]; relative to compound 39): 5 fold
Cl.O=C(Nc1cc(Cl)cc(Cl)c1)Nc1ccc(CN2CCS(=O)(=O)CC2)c(C(F)(F)F)c1 [Compound 68, 1‐(3,5‐Dichlorophenyl)‐3‐(4‐((1,1‐Dioxidothiomorpholino)Methyl)‐3‐(Trifluoromethyl)Phenyl)Urea Hydrochloride]	–	37 ± 5%	> 5.9 µM	5.9 ± 0.51 µM	2.57 ± 0.04 µM	–
COC(=O)C1CN(Cc2ccc(NC(=O)Nc3cc(Cl)cc(Cl)c3)cc2C(F)(F)F)CCO1.Cl (stereo not shown) [Compound 69, Methyl 4‐(4‐(3‐(3,5‐Dichlorophenyl)Ureido)‐2‐(Trifluoromethyl)Benzyl)Morpholine‐2‐Carboxylate Hydrochloride]	–	42 ± 4%	> 34 µM	34 ± 5.6 µM	< 2 µM	–
Cl.O=C1CN(Cc2ccc(NC(=O)Nc3cc(Cl)cc(Cl)c3)cc2C(F)(F)F)CCN1 [Compound 70, 1‐(3,5‐Dichlorophenyl)‐3‐(4‐((3‐Oxopiperazin‐1‐Yl)Methyl)‐3‐(Trifluoromethyl)Phenyl)Urea Hydrochloride]	–	63 ± 7%	> 9.5 µM	9.5 ± 0.28 µM	11.2 ± 0.07 µM	–
O=C(Nc1cc(Cl)cc(Cl)c1)Nc1ccc(CN2CCOC(C(=O)[O-])C2)c(C(F)(F)F)c1.[Li+] (stereo not shown) [Compound 71, Lithium 4‐(4‐(3‐(3,5‐Dichlorophenyl)Ureido)‐2‐(Trifluoromethyl)Benzyl)Morpholine‐2‐Carboxylate]	–	~65%	–	32 ± 0.77 µM	71 ± 1 µM	EC50 ([3]; Severe acute respiratory syndrome coronavirus 2, Calu-3): > 32 µM; kinetic solubility ([6]; as restated in Conclusions): 71 µM L^−1
Cl.NC(=O)C1CN(Cc2ccc(NC(=O)Nc3cc(Cl)cc(Cl)c3)cc2C(F)(F)F)CCO1 (stereo not shown) [Compound 72, 4‐(4‐(3‐(3,5‐Dichlorophenyl)Ureido)‐2‐(Trifluoromethyl)Benzyl)Morpholine‐2‐Carboxamide Hydrochloride]	–	52 ± 5%	> 12 µM	12 ± 0.51 µM	4.7 ± 0.1 µM	–
Ethyl 1‐(4‐(3‐(3,5‐Dichlorophenyl)Ureido)‐2‐(Trifluoromethyl)Benzyl)Piperidine‐4‐Carboxylate Hydrochloride [Compound 67]	–	–	–	–	–	RA ± SD (residual activity of RdRp) ([2]; at 10 μM concentration of screened compounds): 51 ± 11%; EC50 ([3]; Calu‐3 cells infected with SARS‐CoV‐2, concentration required to reduce viral cytopathic effect by 50%, read-out: EC50): > 9 µM; CC50 [7]: 9 ± 0.38 µM
